Entries after “also recorded” stand apart in the source; their conditions may differ.

The results in this text go back to patent publication US11274131B2, “IgM-mediated receptor clustering and cell modulation” (MAYO FOUNDATION FOR MEDICAL EDUCATION AND RESEARCH, priority 2007, dated 2022).

In assay [1] the test system is mouse bone marrow-derived DC. Put plainly: IL-6 ELISA of DC supernatants. In kind it is cell-based. The following applies: 48 hours. On the procedure: Six day mouse bone marrow-derived DC from wild type or IL-6 KO mice were stimulated with isotype control antibody sHIgM39 or B7-DC XAb. IL-6 levels in culture supernatants were assessed 48 hours later by ELISA.
DC of wild type origin or from CD40 deficient mice were stimulated with 10 μg/ml control antibody or B7-DC XAb for 48 hours. Supernatants from the different treatment groups were harvested and quantified for the amount of IL-6 by sandwich ELISA as per the manufacturer's protocol (eBioscience, San Diego, Calif.).
A general note: An ELISA detects its analyte on a solid surface through an enzyme-linked reagent.

The test system of assay [2] is B16-Ova cells. Put plainly: B16-Ova tumor challenge with Ova-pulsed antibody-treated DCs. The following applies: mice given wild type DCs or B7DC reconstituted knockout DCs treated with antibody. The assay is classed as in vivo, mouse. On the procedure: FIG. 17 is a graph depicting protection of mice from B16-Ova tumor challenge by injection of Ova-pulsed DCs expressing the Kb-peptide constructs treated with MTabs. Tumor area was measured daily, with tumor area on day 11 represented in the graph.
DCs treated with hIgM12 can induce potent anti-tumor immunity. […] A variation of this model was used to determine whether Kb-peptide expressing DCs could induce protective tumor immunity. C57BL6 mice were injected subcutaneously in the right flank with 5×10^5 B16-Ova cells, a B16 variant engineered to express ovalbumin. Wild type DCs or B7DC−/− DCs transduced with mB7DC or the Kb constructs were pulsed with 10 ug/mL ovalbumin and treated with 10 ug/mL of either hIgM12 or hIgM22, 24 hours prior to injection. Before injection, DCs were washed and resuspended in 200 μL, HBSS. 10^6 DCs were injected intravenously by tail vein concurrent to B16 injection. Three mice were used in each treatment group. Tumor area was measured daily, and mice were sacrificed when tumor area reached 289 mm^2. […] Thus, DC expressing Kb-peptide fusions were able to induce protective tumor immunity.

The subject of assay [3] is human DC. Put plainly: Calcium flux assay, human DC. The assay is classed as cell-based. How it is done:
Changes in the levels of intracellular Ca^2+ were assessed in Indol-loaded cells by flow cytometry as described previously (Takahashi et al. (2005) J. Exp. Med. 201:647-657). Briefly, 5×10^6 DC/ml were incubated with 5 μM Indo-1 (Calbiochem) at 37° C. for 30 minutes. The cells were washed twice in serum free media and resuspended at 10^6/ml in PBS containing 0.5% BSA. The samples were analyzed by flow cytometry using a UV laser. Violet (390 nm) and blue (500 nm) fluorescence emissions were recorded. Baseline was recorded for two minutes. Antibody was added to the cell suspension (10 μg/ml of control antibody or B7-DC XAb) and the measurements were recorded for 8 additional minutes. In blocking experiments, mouse or human DC were pre-incubated with 10 μg/ml of purified anti-mouse B7-DC antibody (TY-25) or purified anti-human B7-DC antibody (MIH18) for 15 minutes, followed by collection of data for calcium flux as described above. Ionomycin added at 1 μg/ml after 2 minutes served as a positive control. The blue to violet ratio was calculated using FlowJo software (Tristar, Ashland, Oreg.).
In general terms: Calcium flux is commonly read through the fluorescence of an indicator in the cells.

Assay [4] concerns NF-κB. The experiment in a line: NFκB activation assay in mouse DC. The assay is classed as cell-based. How it is done: DC of murine or human origin were stimulated with 10 μg/ml of control antibody or the MTAb B7-DC XAb for 30 minutes, while stimulation of oligodendrocytes was achieved by addition of 10 μg/ml of MTAb sHIgM39, 04, or sHIgM22 for same period of time. All groups were fixed and permeabilized using a Cytofix/Cytoperm Kit (BD PharMingen, San Diego, Calif.) for 20 minutes on ice. Subsequently, rabbit antibody against a C terminal peptide of NF-kB (sc372) was added, incubated for 30 minutes at 4° C. and washed three times with Cytoperm Buffer. Anti-rabbit FITC was used to detect the bound sc372 antibody by incubating the cells for 30 minutes (green). Cells were washed three times before the nuclei were stained with DAPI (blue) (Sigma Aldrich). The cells were then harvested from the plate, cytospin slides were made, and cells were visualized using a LSM510 Laser scanning confocal microscope (Carl-Zeiss Inc, Oberkochen, Germany) at 40.times magnification.

“B7-DC XAb: human monoclonal IgM from a Waldenstrom's macroglobulinemia patient that binds and cross-links B7-DC on DC”: the IL-6 secretion result in assay [1] (DC from CD40 KO mice) is “absence of NF-κB activation and IL-6 secretion; also recorded: do not secrete IL-6”; in assay [1] (DC from wild type mice), “producing IL-6”. Besides, the “protection from tumor outgrowth” value in assay [2] is given as “successfully protected from tumor outgrowth”. Besides, in assay [3], the intracellular calcium signal result was “prolonged calcium signals”. Also, the values for the NF-κB activation result in assay [4] (DC from CD40 KO mice) and in assay [4] (DC from wild type mice) were “absence of NF-κB activation” and “activating NF-κB”, respectively. Further, the NF-κB mobilization entry in assay [4] (TREM-2 KO cells) is “mobilization of NF-κB”.
